Earlier results on two compounds are cited in patent US20250319028A1, “PHARMACEUTICAL FORMULATION COMPRISING TACROLIMUS, METHOD FOR THE PREPARATION THEREOF AND USE” (PHARMATHEN S.A., priority 2021, published 2025).

Bounds are passed on as bounds.

For data set [1] the following is noted: reported, patients.

On to `C=CC[C@@H]1/C=C(\C)C[C@H](C)C[C@H](OC)[C@H]2O[C@@](O)(C(=O)C(=O)N3CCCC[C@H]3C(=O)O[C@H](/C(C)=C/[C@@H]3CC[C@@H](O)[C@H](OC)C3)[C@H](C)[C@@H](O)CC1=O)[C@H](C)C[C@@H]2OC` [Tacrolimus monohydrate], for which the Solubility in ethanol result (ethanol) is given as “freely soluble”. Also, the Solubility in heptane entry (heptane) is listed as “practically insoluble”. Besides, the Solubility in water entry (water) is recorded as “practically insoluble”.

Consider `C=CC[C@@H]1/C=C(\C)C[C@H](C)C[C@H](OC)[C@H]2O[C@@](O)(C(=O)C(=O)N3CCCC[C@H]3C(=O)O[C@H](/C(C)=C/[C@@H]3CC[C@@H](O)[C@H](OC)C3)[C@H](C)[C@@H](O)CC1=O)[C@H](C)C[C@@H]2OC` [Tacrolimus], for which the “Overall incidence of drug-induced nephrotoxicity” value in data set [1] is given as at most 44%.
